Measured values as given in ChEMBL document CHEMBL4007398, “Inhibitors of Influenza Virus Polymerase Acidic (PA) Endonuclease: Contemporary Developments and Perspectives” (J Med Chem, 2017).

Columns and labels:
[1] = molecular target: Polymerase acidic protein (Influenza A virus (A/Puerto Rico/8/1934(H1N1)), UniProt P03433); experiment: Inhibition of influenza A virus (A/PR/8/34) N-terminal PA endonuclease using 880 nucleotide ALMV cap1 primer RNA as substrate
[2] = Inhibition of recombinant influenza A virus A/X-31 N-terminal 6His tagged-PA endonuclease (1 to 217 residues) expressed in Escherichia coli BL21-CodonPlus cells after 2 hrs using single stranded circular DNA plasmid M13mp18 as substrate by ethidium bromide staining based agarose gel electrophoresis; parameters: species or system Influenza A virus (A/X-31(H3N2))
Influenza A virus [3] = experiment: Antiviral activity against influenza A virus (A/PR/8/34) infected in HEK293 cells after 24 hrs by firefly luciferase reporter gene based vRNP-reconstitution assay; assay type: functional, cell-based; conditions: A/Puerto Rico/8/1934(H1N1), HEK293, 24 h
[4] = Cytotoxicity against HEK293 cells assessed as reduction in cell viability by MTS assay; assay type: cell-based; conditions: human
[5] = Antiviral activity against influenza A virus (A/WSN/33 (H1N1)) infected in MDCK cells after 48 hrs by crystal violet staining based plaque reduction assay; assay type: functional, cell-based, Influenza A virus (A/WSN/1933(H1N1))
[6] = Cytotoxicity against MDCK cells assessed as reduction in cell viability after 48 hrs by WST-1 assay; assay type: cell-based, Canis lupus familiaris; conditions: dog
Influenza A virus [7] = experiment: Antiviral activity against influenza A virus (A/PR/8/34) infected in MDCK cells assessed as reduction in viral yield incubated for 30 mins prior to infection measured after 24 hrs by plaque reduction assay; assay type: functional, cell-based; conditions: A/Puerto Rico/8/1934(H1N1)
Influenza A virus [8] = experiment: Antiviral activity against influenza A virus; assay type: functional
[9] = Inhibition of recombinant influenza A virus A/X-31 N-terminal 6His tagged-PA endonuclease (1 to 217 residues) expressed in Escherichia coli BL21-CodonPlus cells after 1 hr using single stranded circular DNA plasmid M13mp18 as substrate by ethidium bromide staining based agarose gel electrophoresis; parameters: species or system Influenza A virus (A/X-31(H3N2))
[10] = Inhibition of influenza A virus N-terminal PA endonuclease
[11] = Binding affinity to influenza A virus PA endonuclease by isothermal titration calorimetry
[12] = Antiviral activity against influenza A virus (A/HK/415742/09(H1N1)) infected in MDCK cells by plaque reduction assay; assay type: functional, cell-based, Influenza A virus (A/Hong Kong/415742/2009(H1N1))
[13] = Cytotoxicity against MDCK cells by MTT assay; assay type: cell-based, Canis lupus familiaris; conditions: dog
[14] = Inhibition of recombinant influenza A virus A/X-31 N-terminal PA endonuclease (1 to 217 residues) after 2 hrs using single stranded circular DNA plasmid M13mp18 as substrate by ethidium bromide staining based agarose gel electrophoresis; parameters: species or system Influenza A virus (A/X-31(H3N2))
Influenza A virus [15] = experiment: Antiviral activity against influenza A virus ((A/PR/8/34) infected in MDCK cells assessed as reduction in viral yield after 24 hrs by qRT-PCR assay; assay type: functional; conditions: A/Puerto Rico/8/1934(H1N1)
[16] = Cytotoxicity against MDCK cells assessed as reduction in cell viability after 24 hrs by MTS assay; assay type: cell-based, Canis lupus familiaris; conditions: dog
[17] = Cytotoxicity against HEK293 cells assessed as reduction in cell viability after 24 hrs by MTS assay; assay type: cell-based; conditions: human
Influenza A virus [18] = experiment: Antiviral activity against influenza A virus infected in HEK293 cells after 24 hrs by firefly luciferase reporter gene based vRNP-reconstitution assay; assay type: functional, cell-based; conditions: HEK293, 24 h
Influenza A virus [19] = experiment: Antiviral activity against influenza A virus H1N1 infected in MDCK cells assessed as reduction of virus-induced cytopathic effect after 48 hrs by CellTiter-Glo luminescent assay; assay type: functional, cell-based
Influenza A virus (H1N1) = experiment: Antiviral activity against influenza A virus H1N1-pdm09 infected in MDCK cells assessed as reduction of virus-induced cytopathic effect after 48 hrs by CellTiter-Glo luminescent assay; assay type: functional, cell-based
Influenza A virus H3N2 = experiment: Antiviral activity against influenza A virus H3N2 infected in MDCK cells assessed as reduction of virus-induced cytopathic effect after 48 hrs by CellTiter-Glo luminescent assay; assay type: functional, cell-based
H5N1 subtype = experiment: Antiviral activity against influenza A virus H5N1 infected in MDCK cells assessed as reduction of virus-induced cytopathic effect after 48 hrs by CellTiter-Glo luminescent assay; assay type: functional, cell-based
[20] = Antiviral activity against influenza A virus H7N9 infected in MDCK cells assessed as reduction of virus-induced cytopathic effect after 48 hrs by CellTiter-Glo luminescent assay; assay type: functional, cell-based, H7N9 subtype
[21] = Antiviral activity against influenza A virus H9N2 infected in MDCK cells assessed as reduction of virus-induced cytopathic effect after 48 hrs by CellTiter-Glo luminescent assay; assay type: functional, cell-based, H9N2 subtype
Influenza B virus [22] = experiment: Antiviral activity against influenza B virus infected in MDCK cells assessed as reduction of virus-induced cytopathic effect after 48 hrs by CellTiter-Glo luminescent assay; assay type: functional, cell-based
[23] = Cytotoxicity against MDCK cells assessed as reduction in cell viability after 48 hrs in serum free conditions by CellTiter-Glo luminescent assay; assay type: cell-based, Canis lupus familiaris; conditions: dog
[24] = Cytotoxicity against MDCK cells assessed as reduction in cell viability after 48 hrs in presence of 5 % serum by CellTiter-Glo luminescent assay; assay type: cell-based, Canis lupus familiaris; conditions: dog
[25] = Antiviral activity against influenza A virus (A/Chile/1/83) infected in MDCK cells after 2 to 3 days by crystal violet staining based plaque reduction assay; assay type: functional, cell-based, Influenza A virus (A/Chile/1/1983(H1N1))
[26] = Antiviral activity against influenza A virus (A/Sydney/5/97) infected in MDCK cells after 2 to 3 days by crystal violet staining based plaque reduction assay; assay type: functional, cell-based, Influenza A virus (A/Sydney/5/1997(H3N2))
Influenza B virus [27] = experiment: Antiviral activity against influenza B virus (B/Yamagata/16/88) infected in MDCK cells after 2 to 3 days by crystal violet staining based plaque reduction assay; assay type: functional, cell-based; conditions: B/Yamagata/16/1988, MDCK
[28] = Cytotoxicity against MDCK cells after 48 hrs by MTT assay; assay type: cell-based, Canis lupus familiaris; conditions: dog

**Q.** For `CC(C)/C=C1\N=C(CC(C)C)C(=O)N(O)C1=O`, which IC50 [1] is on record?
**A.** Its IC50 is 5.1 to 5.5 µM.

**Q.** With `NC(=S)N/N=C/c1cccc(O)c1O` as the molecule, how does the IC50 [2] read?
**A.** The IC50 was 37 µM.

**Q.** And the EC50 (Influenza A virus [3])?
**A.** Its EC50 is 63 µM.

**Q.** And the CC50 [4]?
**A.** The CC50 was over 200 µM.

**Q.** Which EC50 [5] does the source give for `OC(CN1CCCCC1)Cn1c2c(c3ccccc31)CCCC2` (stereo unspecified) here?
**A.** The EC50 was 36.5 µM.

**Q.** And the CC50 at 48 h [6]?
**A.** The CC50 at 48 h was over 200 µM.

**Q.** With `O=C(O)/C(O)=C/C(=O)C1(Cc2ccc(Cl)cc2)CCN(CC2CCCCC2)CC1` as the molecule, how does the EC50 (Influenza A virus [7]) read?
**A.** The EC50 was 0.18 to 0.71 µM.

**Q.** Which EC50 (Influenza A virus [8]) does the source give for `CC(=O)Nc1cccc(-c2nc(C(=O)O)c(O)c(=O)[nH]2)c1` here?
**A.** Its EC50 is over 50 µM.

**Q.** For `Cn1cnc(-c2nc(C(=O)O)c(O)c(=O)[nH]2)c1`, which EC50 (Influenza A virus [8]) is on record?
**A.** The EC50 was over 50 µM.

**Q.** For `O=C(O)/C(O)=C/C(=O)C1(Cc2ccc(Cl)cc2)CCN(Cc2ccc(Cl)cc2)CC1`, which EC50 (Influenza A virus [7]) is on record?
**A.** The EC50 was 0.18 to 0.71 µM.

**Q.** Which EC50 (Influenza A virus [7]) does the source give for `O=C(O)/C(O)=C/C(=O)C1(Cc2ccc(Cl)cc2)CCCN(Cc2ccccc2)C1` (stereo unspecified) here?
**A.** Its EC50 is 0.18 to 0.71 µM.

**Q.** Which EC50 (Influenza A virus [7]) does the source give for `O=C(O)/C(O)=C/C(=O)C1(Cc2ccc(Cl)cc2)CCCN(S(=O)(=O)Cc2ccccc2)C1` (stereo unspecified) here?
**A.** The EC50 was 0.18 to 0.71 µM.

**Q.** For `O=C(NCc1ccc(F)cc1)c1cccc(O)c1O`, which IC50 [9] is on record?
**A.** The IC50 was 33 µM.

**Q.** Which IC50 [10] does the source give for `O=c1[nH]cc(Br)cc1O` here?
**A.** The IC50 was 16 µM.

**Q.** For `CN(C)c1ccc(/C=C2\C/C(=N\N=C3\C(=O)Nc4ccccc43)NC2=O)cc1`, which Kd [11] is on record?
**A.** The Kd was 1.3 µM.

**Q.** What about the EC50 [12] of the same molecule?
**A.** Its EC50 is 1.5 µM.

**Q.** And the CC50 [13]?
**A.** Its CC50 is over 300 µM.

**Q.** With `O=C(N/N=C/c1cc(O)c(O)c(O)c1)c1cc(O)c(O)c(O)c1` as the molecule, how does the IC50 [14] read?
**A.** Its IC50 is 8.7 µM.

**Q.** What about the EC90 (Influenza A virus [15]) of the same molecule?
**A.** Its EC90 is 3.5 µM.

**Q.** And the CC50 at 24 h [16]?
**A.** The CC50 at 24 h was over 200 µM.

**Q.** And the CC50 at 24 h [17]?
**A.** Its CC50 at 24 h is over 200 µM.

**Q.** And the EC50 (Influenza A virus [18])?
**A.** The EC50 was 3.1 µM.

**Q.** With `O=C1Nc2ccccc2/C1=N\N=C1/C/C(=C2\C(=O)Nc3ccccc32)C(=O)N1` as the molecule, how does the Kd [11] read?
**A.** Its Kd is 1.1 µM.

**Q.** What about the EC50 [12] of the same molecule?
**A.** Its EC50 is 0.8 µM.

**Q.** And the CC50 [13]?
**A.** Its CC50 is over 400 µM.

**Q.** For `NC(=O)N/N=C/c1cccc(O)c1O`, which IC50 [2] is on record?
**A.** The IC50 was 24 µM.

**Q.** What about the EC50 (Influenza A virus [3]) of the same molecule?
**A.** Its EC50 is 107 µM.

**Q.** What about the CC50 [4] of the same molecule?
**A.** The CC50 was over 200 µM.

**Q.** With `C[C@@H](N1CN([C@H]2c3ccccc3CSc3ccccc32)n2ccc(=O)c(O)c2C1=O)C(F)(F)F` as the molecule, how does the EC50 (Influenza A virus [19]) read?
**A.** The EC50 was 0.0083 µM.

**Q.** What about the EC50 (Influenza A virus (H1N1)) of the same molecule?
**A.** The EC50 was 0.007 µM.

**Q.** And the EC50 (Influenza A virus H3N2)?
**A.** The EC50 was 0.0085 µM.

**Q.** And the EC50 (H5N1 subtype)?
**A.** The EC50 was 0.0139 µM.

**Q.** What about the EC50 [20] of the same molecule?
**A.** The EC50 was 0.0154 µM.

**Q.** What about the EC50 [21] of the same molecule?
**A.** Its EC50 is 0.0122 µM.

**Q.** And the EC50 (Influenza B virus [22])?
**A.** The EC50 was 0.0128 µM.

**Q.** And the CC50 at 48 h [23]?
**A.** Its CC50 at 48 h is 11.9 µM.

**Q.** What about the CC50 at 48 h [24] of the same molecule?
**A.** The CC50 at 48 h was 86.2 µM.

**Q.** With `O=C(O)/C(O)=C/C(=O)c1cccn1Cc1ccc(F)cc1` as the molecule, how does the IC50 [2] read?
**A.** The IC50 was 0.8 µM.

**Q.** Which results are given for `O=C(O[C@@H]1Cc2c(O)cc(O)cc2O[C@@H]1c1ccc(O)c(O)c1)c1cc(O)c(O)c(O)c1` [EPICATECHIN GALLATE]?
**A.** EC50 [25]: 26.4 µM; EC50 [26]: 22.2 µM; EC50 (Influenza B virus [27]): 40.4 µM; CC50 at 48 h [28]: 526 µM

**Q.** For `O=C(O[C@@H]1Cc2c(O)cc(O)cc2O[C@@H]1c1cc(O)c(O)c(O)c1)c1cc(O)c(O)c(O)c1` [EPIGALOCATECHIN GALLATE], which EC50 [25] is on record?
**A.** Its EC50 is 28.4 µM.

**Q.** What about the EC50 [26] of the same molecule?
**A.** The EC50 was 22.8 µM.

**Q.** What about the EC50 (Influenza B virus [27]) of the same molecule?
**A.** Its EC50 is 26.1 µM.

**Q.** What about the CC50 at 48 h [28] of the same molecule?
**A.** The CC50 at 48 h was 275 µM.
